From US12024707B2, “Methods and compositions for modulating lncRNAs and methods of treatment based on lncRNA expression” (Washington University, priority 2020, dated 2024)
“And” between values parts separate entries of the source, which are not always exact repeats. Equal entries are not always repeated. Structures can show the parent of a compound that is named as a salt. Where two headings read alike, the source gives them in different places.

Test system: HT29 RAMS11 overexpressing cells
Assay: High-throughput viability assay (resazurin), 119 FDA-approved anticancer drugs, RAMS11 overexpressing cells (Clone1, Clone2)
[1] = OE1 (RAMS11 overexpression clone 1), 0.1 uM drug, 72 h, vs empty vector control
[2] = OE1 (RAMS11 overexpression clone 1), 1 uM drug, 72 h, vs empty vector control
[3] = OE1 (RAMS11 overexpression clone 1), 10 uM drug, 72 h, vs empty vector control
[4] = OE2 (RAMS11 overexpression clone 2), 0.1 uM drug, 72 h, vs empty vector control
[5] = OE2 (RAMS11 overexpression clone 2), 1 uM drug, 72 h, vs empty vector control
[6] = OE2 (RAMS11 overexpression clone 2), 10 uM drug, 72 h, vs empty vector control

Protocol: The FDA-approved anticancer panel included multiple classes of drugs such as kinase inhibitors, alkylating agents, antineoplastic antibiotics, anthracycline antibiotics, and antineoplastic agents (topoisomerase inhibitors). The HT29 RAMS11 overexpressing and control cells were treated for 72 h to assess cellular viability upon drug treatment (FIG. 14a and TABLE 3). […] Due to 5-FU commonly used to treat mCRC, we further determined if RAMS11 expression altered drug sensitivity in treated cells.
Drugs were diluted in DMSO to 1 mM and the well assignments were rearranged so drugs were confined to the inner 60 wells of 96-well plates. […] The next day serial diluted drug was added to pre-seeded plates in media containing 1% DMSO vehicle, using a Robbins Hydra 96 micro dispenser. Two 96-well plates of cells were used as vehicle controls. The plates were incubated for 3 days. Percent viability was scored by incubating cells for 3 h with resazurin sodium (0.023 mg/mL, Sigma R7017). The reaction was stopped by the addition of SDS (1% final concentration). Fluorescence Ex/Em 540/590 was read in a Biotek Synergy H1 plate reader (Winooski, VT). The fluorescence values for the vehicle plates were averaged and percent viability was determined by the formula: Percent viability=(average vehicle−value)/(average vehicle−average resazurin in media blank)×100. […] Assays were repeated more than three times.

SMILES | Viability Fold Change [1] | Viability Fold Change [2] | Viability Fold Change [3] | Viability Fold Change [4] | Viability Fold Change [5] | Viability Fold Change [6] | Viability Fold Change
C[C@]12CC[C@H](O)CC1=CC[C@@H]1[C@@H]2CC[C@]2(C)C(c3cccnc3)=CC[C@@H]12 [Abiraterone] | 0.9503 | 0.9997 | 1.001 | 1.008 | 1.043 | 0.9879 | –
CN(C)C/C=C/C(=O)Nc1cc2c(Nc3ccc(F)c(Cl)c3)ncnc2cc1O[C@H]1CCOC1 [Afatinib] | 1.034 | 1.121 | 1.39 | 1.147 | 1.156 | 1.398 | –
Oc1ncnc2[nH]ncc12 [Allopurinol] | 0.8682 | 0.9042 | 0.776 | 0.9002 | 0.8635 | 0.8648 | –
CN(C)c1nc(N(C)C)nc(N(C)C)n1 [Altretamine] | 0.949 | 0.9105 | 0.845 | 0.9299 | 0.9672 | 0.9171 | –
NCCCNCCSP(=O)(O)O [Amifostine] | 0.9539 | 1.024 | 1.063 | 0.99 | 1.063 | 1.167 | –
NCC(=O)CCC(=O)O [Aminolevulinic Acid] | 0.8803 | 0.9655 | 1.022 | 0.914 | 1.058 | 0.9613 | –
CC(C)(C#N)c1cc(Cn2cncn2)cc(C(C)(C)C#N)c1 [Anastrozole] | 0.876 | 0.9957 | 0.9385 | 0.9749 | 1.001 | 0.9255 | –
CNC(=O)c1ccccc1Sc1ccc2c(/C=C/c3ccccn3)n[nH]c2c1 [Axitinib] | 0.9514 | 0.9382 | 0.8636 | 0.911 | 1.101 | 0.8143 | –
Nc1ncn([C@@H]2O[C@H](CO)[C@@H](O)[C@H]2O)c(=O)n1 [Azacitidine] | 1.05 | 1.098 | 0.9367 | 1.089 | 1.054 | 0.9049 | –
O=C(/C=C/c1cccc(S(=O)(=O)Nc2ccccc2)c1)NO [Belinostat] | 0.9138 | 1.209 | 1.035 | 1.073 | 1.192 | 1.006 | –
Cn1c(CCCC(=O)O)nc2cc(N(CCCl)CCCl)ccc21 [Bendamustine hydrochloride] | 0.8888 | 0.9725 | 0.935 | 1.01 | 0.9036 | 0.899 | –
CC(C)C[C@H](NC(=O)[C@H](Cc1ccccc1)NC(=O)c1cnccn1)B(O)O [Bortezomib] | 0.6015 | 1.059 | 1.152 | 0.5035 | 0.8063 | 0.9968 | –
COc1cc(Nc2c(C#N)cnc3cc(OCCCN4CCN(C)CC4)c(OC)cc23)c(Cl)cc1Cl [Bosutinib] | 1.048 | 1.013 | 1.477 | 1.022 | 1.04 | 1.608 | –
CS(=O)(=O)OCCCCOS(C)(=O)=O [Busulfan] | 1.001 | 0.9365 | 0.8448 | 0.977 | 0.9369 | 0.871 | –
CO[C@H]1C(=O)[C@]2(C)[C@@H](OC)C[C@H]3OC[C@@]3(OC(C)=O)[C@H]2[C@H](OC(=O)c2ccccc2)[C@]2(O)C[C@H](OC(=O)[C@H](O)[C@@H](NC(=O)OC(C)(C)C)c3ccccc3)C(C)=C1C2(C)C [Cabazitaxel] | 2.975 | 3.231 | 2.607 | 2.745 | 2.869 | 2.506 | –
COc1cc2nccc(Oc3ccc(NC(=O)C4(C(=O)Nc5ccc(F)cc5)CC4)cc3)c2cc1OC [Cabozantinib] | 0.9713 | 1.012 | 0.995 | 0.9575 | 1.037 | 0.8731 | –
CCCCCOC(=O)Nc1nc(=O)n([C@@H]2O[C@H](C)[C@@H](O)[C@H]2O)cc1F [Capecitabine] | 1.291 | 0.7939 | 0.9609 | 1.102 | 0.8093 | 1.166 | –
N.N.O=C([O-])C1(C(=O)[O-])CCC1.[Pt+2] [Carboplatin] | 1.016 | 1.047 | 1.103 | 0.9697 | 1.074 | 0.9969 | –
CC(C)C[C@H](NC(=O)[C@H](CCc1ccccc1)NC(=O)CN1CCOCC1)C(=O)N[C@@H](Cc1ccccc1)C(=O)N[C@@H](CC(C)C)C(=O)[C@@]1(C)CO1 [Carfilzomib] | 3.32 | 2.1 | 1.625 | 2.675 | 1.654 | 1.343 | –
O=NN(CCCl)C(=O)NCCCl [Carmustine] | 1.007 | 0.9864 | 0.8696 | 1.005 | 1.079 | 1.04 | –
Cc1ccc(-c2cc(C(F)(F)F)nn2-c2ccc(S(N)(=O)=O)cc2)cc1 [Celecoxib] | 0.8767 | 0.9228 | 0.9797 | 0.948 | 0.9628 | 0.9848 | –
Cc1cc(Nc2ncc(Cl)c(Nc3ccccc3S(=O)(=O)C(C)C)n2)c(OC(C)C)cc1C1CCNCC1 [Ceritinib] | 0.9923 | 1.015 | 0.8304 | 1.009 | 1.068 | 0.8195 | –
O=C(O)CCCc1ccc(N(CCCl)CCCl)cc1 [Chlorambucil] | 0.9531 | 1.164 | 1.064 | 0.9859 | 1.144 | 0.9173 | –
N.N.[Cl][Pt][Cl] [Cisplatin] | 1.023 | 0.9277 | 0.9406 | 0.9583 | 0.9782 | 0.9961 | –
Nc1nc(Cl)nc2c1ncn2[C@H]1C[C@H](O)[C@@H](CO)O1 [Cladribine] | 0.8736 | 1.321 | 1.949 | 0.9358 | 1.327 | 1.86 | –
Nc1nc(Cl)nc2c1ncn2[C@@H]1O[C@H](CO)[C@@H](O)[C@@H]1F [Clofarabine] | 0.9141 | 1.361 | 2.473 | 1.012 | 1.421 | 2.375 | –
C[C@@H](Oc1cc(-c2cnn(C3CCNCC3)c2)cnc1N)c1c(Cl)ccc(F)c1Cl [Crizotinib] | 0.9595 | 1.07 | 0.9127 | 0.9806 | 1.093 | 0.8562 | –
O=P1(N(CCCl)CCCl)NCCCO1 (stereo not shown) [Cyclophosphamide] | – | – | – | – | – | – | 0.857 and 0.9632 and 0.9808 and 0.899 and 1.019 and 0.881
Nc1ccn([C@@H]2O[C@H](CO)[C@@H](O)[C@@H]2O)c(=O)n1 [Cytarabine hydrochloride] | 0.9825 | 1.254 | 1.524 | 0.9917 | 1.381 | 1.876 | –
CN(C)/N=N/c1[nH]cnc1C(N)=O [Dacarbazine] | 1.078 | 0.9877 | 0.983 | 1.084 | 1.028 | 0.9794 | –
